Source: the NIST ThermoML archive (doi:10.1021/je201334p)

Columns and labels:
[1] = xn = mol fraction of the nth substance listed; conditions: 101 kPa, Liquid; for speed of sound: Sing-around technique in a fixed-path interferometer; for mass density: Vibrating tube method
[2] = refractive index (Na D-line) (dimensionless); xn = mol fraction of the nth substance listed; conditions: 101 kPa, Liquid, Standard Abbe refractometry

CCCCn1cc[n+](C)c1.N#CN=C=[N-] [1-butyl-3-methylimidazolium dicyanamide] + O
Conditions | mass density, 288.15 K [kg/m3] | mass density, 298.15 K [kg/m3] | mass density, 308.15 K [kg/m3] | refractive index, 288.15 K | refractive index, 298.15 K | refractive index, 308.15 K | speed of sound, 288.15 K [m/s] | speed of sound, 298.15 K [m/s] | speed of sound, 308.15 K [m/s]
[1], x2 = 0 | 1066.58 | 1060.17 | 1053.83 | – | – | – | 1764.3 | 1738.1 | 1713.1
[1], x2 = 0.1088 | 1065.59 | 1059.16 | 1052.79 | – | – | – | 1762 | 1736.9 | 1712.4
[1], x2 = 0.1227 | 1065.44 | 1059.01 | 1052.64 | – | – | – | 1761.9 | 1736.8 | 1712.2
[1], x2 = 0.2017 | 1064.62 | 1058.16 | 1051.77 | – | – | – | 1760.9 | 1735.9 | 1711.6
[1], x2 = 0.2943 | 1063.46 | 1056.98 | 1050.55 | – | – | – | 1759.9 | 1735 | 1710.7
[1], x2 = 0.3952 | 1061.88 | 1055.35 | 1048.88 | – | – | – | 1758.3 | 1734 | 1710
[1], x2 = 0.503 | 1059.83 | 1053.24 | 1046.7 | – | – | – | 1756.8 | 1733 | 1709.4
[1], x2 = 0.5985 | 1057.37 | 1050.71 | 1044.09 | – | – | – | 1755.5 | 1732.1 | 1709
[1], x2 = 0.7032 | 1053.63 | 1046.89 | 1040.15 | – | – | – | 1751.4 | 1729.1 | 1706.9
[1], x2 = 0.805 | 1047.26 | 1040.5 | 1033.69 | – | – | – | 1738.5 | 1718.6 | 1698.2
[1], x2 = 0.9006 | 1035.92 | 1029.6 | 1023.11 | – | – | – | 1694.1 | 1682.2 | 1668.8
[1], x2 = 0.9503 | 1024.07 | 1018.75 | 1013.06 | – | – | – | 1630.6 | 1630.5 | 1627.4
[2], x2 = 0 | – | – | – | 1.51213 | 1.50893 | 1.50578 | – | – | –
[2], x2 = 0.1088 | – | – | – | 1.5099 | 1.50673 | 1.50348 | – | – | –
[2], x2 = 0.1227 | – | – | – | 1.50953 | 1.50631 | 1.50321 | – | – | –
[2], x2 = 0.2017 | – | – | – | 1.50758 | 1.50443 | 1.50114 | – | – | –
[2], x2 = 0.2943 | – | – | – | 1.50476 | 1.50161 | 1.49821 | – | – | –
[2], x2 = 0.3952 | – | – | – | 1.50075 | 1.49756 | 1.49443 | – | – | –
[2], x2 = 0.503 | – | – | – | 1.49536 | 1.49223 | 1.48897 | – | – | –
[2], x2 = 0.5985 | – | – | – | 1.48855 | 1.48541 | 1.48225 | – | – | –
[2], x2 = 0.7032 | – | – | – | 1.47799 | 1.47495 | 1.47147 | – | – | –
[2], x2 = 0.805 | – | – | – | 1.46004 | 1.45694 | 1.45386 | – | – | –
[2], x2 = 0.9006 | – | – | – | 1.42867 | 1.42613 | 1.42382 | – | – | –
[2], x2 = 0.9503 | – | – | – | 1.39733 | 1.3952 | 1.39322 | – | – | –

CCOS(=O)(=O)[O-].CCc1cccc[n+]1CC [1,2-diethylpyridinium ethylsulfate] + O
Conditions | mass density, 288.15 K [kg/m3] | mass density, 298.15 K [kg/m3] | mass density, 308.15 K [kg/m3] | refractive index, 288.15 K | refractive index, 298.15 K | refractive index, 308.15 K | speed of sound, 288.15 K [m/s] | speed of sound, 298.15 K [m/s] | speed of sound, 308.15 K [m/s]
[1], x2 = 0 | 1225.93 | 1219.26 | 1212.65 | – | – | – | 1774.5 | 1745.2 | 1718.4
[1], x2 = 0.0987 | 1224.31 | 1217.63 | 1211.14 | – | – | – | 1778.2 | 1749.1 | 1722.4
[1], x2 = 0.1089 | 1224.06 | 1217.36 | 1210.87 | – | – | – | 1778.4 | 1749.5 | 1723
[1], x2 = 0.2048 | 1222.4 | 1215.83 | 1209.22 | – | – | – | 1781.1 | 1753.9 | 1727.5
[1], x2 = 0.3037 | 1219.81 | 1213.23 | 1206.65 | – | – | – | 1787.5 | 1760.5 | 1734.4
[1], x2 = 0.3979 | 1216.82 | 1210.11 | 1203.43 | – | – | – | 1794.1 | 1767.4 | 1741.1
[1], x2 = 0.4922 | 1212.76 | 1206.04 | 1199.29 | – | – | – | 1803.5 | 1776.8 | 1750.6
[1], x2 = 0.6018 | 1205.78 | 1198.92 | 1192.05 | – | – | – | 1817.3 | 1790.5 | 1763.7
[1], x2 = 0.7084 | 1194.96 | 1187.92 | 1180.85 | – | – | – | 1836.4 | 1809.2 | 1782.1
[1], x2 = 0.8029 | 1177.39 | 1170.26 | 1163.05 | – | – | – | 1854.8 | 1827.2 | 1799.4
[1], x2 = 0.8984 | 1138.4 | 1131.51 | 1124.48 | – | – | – | 1846.6 | 1821.6 | 1795.6
[1], x2 = 0.9493 | 1092.23 | 1086.65 | 1080.72 | – | – | – | 1759.2 | 1746.2 | 1731.8
[2], x2 = 0 | – | – | – | 1.51631 | 1.5135 | 1.51067 | – | – | –
[2], x2 = 0.0987 | – | – | – | 1.51478 | 1.51196 | 1.50914 | – | – | –
[2], x2 = 0.1089 | – | – | – | 1.51458 | 1.51176 | 1.50896 | – | – | –
[2], x2 = 0.2048 | – | – | – | 1.51266 | 1.50984 | 1.50705 | – | – | –
[2], x2 = 0.3037 | – | – | – | 1.51023 | 1.50743 | 1.50461 | – | – | –
[2], x2 = 0.3979 | – | – | – | 1.50723 | 1.5044 | 1.50156 | – | – | –
[2], x2 = 0.4922 | – | – | – | 1.50325 | 1.50042 | 1.49759 | – | – | –
[2], x2 = 0.6018 | – | – | – | 1.49668 | 1.49381 | 1.49094 | – | – | –
[2], x2 = 0.7084 | – | – | – | 1.48656 | 1.48367 | 1.48071 | – | – | –
[2], x2 = 0.8029 | – | – | – | 1.47121 | 1.46831 | 1.46515 | – | – | –
[2], x2 = 0.8984 | – | – | – | 1.43938 | 1.43661 | 1.43375 | – | – | –
[2], x2 = 0.9493 | – | – | – | 1.4043 | 1.40198 | 1.40013 | – | – | –
